ChEMBL document CHEMBL1201862, “PubChem BioAssay data set” (2004)
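48-hour exposure; five concentrations; linearly interpolated endpoints. GI50 = concentration required for 50% inhibition of growth.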 Calls of active or inactive are those of the source. Cut-off read from the data, not from the text of the source: active = GI50 up to about 1.1 µM and inactive = higher.

Key:
Assay in all cases: growth of human tumour cells (NCI), 48 h
[1] = system: M14
[2] = system: U-251
[3] = system: 786-0
[4] = system: HT-29
[5] = system: LOX IMVI
[6] = system: HCT-15
[7] = system: SR
[8] = system: RPMI-8226
[9] = system: DU-145
[10] = system: NCI-H23
[11] = system: UO-31
[12] = system: OVCAR-4
[13] = system: SN12C
[14] = system: MDA-MB-231
[15] = system: MDA-MB-435
[16] = system: SK-MEL-2
[17] = system: SNB-75
[18] = system: SK-OV-3
[19] = system: NCI-H226
[20] = system: OVCAR-8
[21] = system: TK-10
[22] = system: MCF7
[23] = system: OVCAR-3
[24] = system: COLO 205
[25] = system: SF-268
[26] = system: SK-MEL-5
[27] = system: HOP-62
[28] = system: KM12
[29] = system: HCT-116
[30] = system: Malme-3M
[31] = system: NCI/ADR-RES
[32] = system: SNB-19
[33] = system: EKVX
[34] = system: PC-3
[35] = system: OVCAR-5
[36] = system: K562
[37] = system: CCRF-CEM
[38] = system: ACHN
[39] = system: UACC-62
[40] = system: A549
[41] = system: MDA-N
[42] = system: SW-620
[43] = system: MOLT-4
[44] = system: UACC-257
[45] = system: IGROV-1
[46] = system: A498
[47] = system: SK-MEL-28
[48] = system: Hs-578T
[49] = system: SF-295
[50] = system: T47D
[51] = system: CAKI-1
[52] = system: HL-60
[53] = system: RXF 393
[54] = system: HCC 2998

**Q.** What does the source list for `CC1(C)OCC(C(O)C2OC(C)(C)OC2C=O)O1` (centres undefined)?
**A.** GI50 [1]: > 100 µM (inactive); GI50 [2]: > 100 µM (inactive); GI50 [3]: > 100 µM (inactive); GI50 [4]: > 100 µM (inactive); GI50 [5]: > 100 µM (inactive); GI50 [6]: > 100 µM; GI50 [7]: > 100 µM (inactive); GI50 [8]: > 100 µM (inactive); GI50 [9]: > 100 µM (inactive); GI50 [10]: > 100 µM (inactive); GI50 [11]: > 100 µM (inactive); GI50 [12]: > 100 µM (inactive); GI50 [13]: > 100 µM (inactive); GI50 [14]: > 100 µM (inactive); GI50 [15]: > 100 µM (inactive); GI50 [16]: > 100 µM (inactive); GI50 [17]: > 100 µM (inactive); GI50 [18]: > 100 µM (inactive); GI50 [19]: > 100 µM (inactive); GI50 [20]: > 100 µM (inactive); GI50 [21]: > 100 µM (inactive); GI50 [22]: > 100 µM (inactive); GI50 [23]: > 100 µM (inactive); GI50 [24]: > 100 µM (inactive); GI50 [25]: > 100 µM (inactive); GI50 [26]: > 100 µM (inactive); GI50 [27]: > 100 µM (inactive); GI50 [28]: > 100 µM (inactive); GI50 [29]: > 100 µM (inactive); GI50 [30]: > 100 µM (inactive); GI50 [31]: > 100 µM (inactive); GI50 [32]: > 100 µM (inactive); GI50 [33]: > 100 µM (inactive); GI50 [34]: > 100 µM (inactive); GI50 [35]: > 100 µM (inactive); GI50 [36]: > 100 µM (inactive); GI50 [37]: > 100 µM (inactive); GI50 [38]: > 100 µM (inactive); GI50 [39]: > 100 µM (inactive); GI50 [40]: > 100 µM (inactive); GI50 [41]: > 100 µM (inactive); GI50 [42]: > 100 µM (inactive); GI50 [43]: > 100 µM (inactive); GI50 [44]: > 100 µM (inactive); GI50 [45]: > 100 µM (inactive); GI50 [46]: > 100 µM (inactive); GI50 [47]: > 100 µM (inactive); GI50 [48]: > 100 µM (inactive); GI50 [49]: > 100 µM (inactive)

**Q.** For `C=CCc1c(O)c2nsnc2c2nsnc12`, which GI50 [1] is on record?
**A.** The GI50 was > 10 µM (inactive).

**Q.** And the GI50 [3]?
**A.** Its GI50 is > 10 µM (inactive).

**Q.** What about the GI50 [4] of the same compound?
**A.** Its GI50 is > 10 µM (inactive).

**Q.** And the GI50 [5]?
**A.** The GI50 was > 10 µM (inactive).

**Q.** What about the GI50 [50] of the same compound?
**A.** The GI50 was > 10 µM (inactive).

**Q.** What about the GI50 [6] of the same compound?
**A.** The GI50 was > 10 µM.

**Q.** And the GI50 [7]?
**A.** Its GI50 is > 10 µM (inactive).

**Q.** What about the GI50 [8] of the same compound?
**A.** Its GI50 is > 10 µM (inactive).

**Q.** What about the GI50 [9] of the same compound?
**A.** Its GI50 is > 10 µM (inactive).

**Q.** What about the GI50 [10] of the same compound?
**A.** Its GI50 is > 10 µM (inactive).

**Q.** What about the GI50 [13] of the same compound?
**A.** The GI50 was > 10 µM (inactive).

**Q.** What about the GI50 [14] of the same compound?
**A.** Its GI50 is > 10 µM (inactive).

**Q.** And the GI50 [51]?
**A.** Its GI50 is > 10 µM (inactive).

**Q.** And the GI50 [17]?
**A.** Its GI50 is > 10 µM (inactive).

**Q.** And the GI50 [18]?
**A.** The GI50 was > 10 µM (inactive).

**Q.** And the GI50 [20]?
**A.** The GI50 was > 10 µM (inactive).

**Q.** And the GI50 [21]?
**A.** Its GI50 is > 10 µM (inactive).

**Q.** What about the GI50 [22] of the same compound?
**A.** The GI50 was > 10 µM (inactive).

**Q.** What about the GI50 [24] of the same compound?
**A.** The GI50 was > 10 µM (inactive).

**Q.** And the GI50 [25]?
**A.** The GI50 was > 10 µM (inactive).

**Q.** And the GI50 [26]?
**A.** The GI50 was > 10 µM (inactive).

**Q.** What about the GI50 [27] of the same compound?
**A.** Its GI50 is > 10 µM (inactive).

**Q.** What about the GI50 [28] of the same compound?
**A.** Its GI50 is > 10 µM (inactive).

**Q.** What about the GI50 [52] of the same compound?
**A.** Its GI50 is > 10 µM (inactive).

**Q.** And the GI50 [30]?
**A.** The GI50 was > 10 µM (inactive).

**Q.** And the GI50 [53]?
**A.** The GI50 was > 10 µM (inactive).

**Q.** And the GI50 [33]?
**A.** Its GI50 is > 10 µM (inactive).

**Q.** And the GI50 [34]?
**A.** Its GI50 is > 10 µM (inactive).

**Q.** And the GI50 [36]?
**A.** Its GI50 is > 10 µM (inactive).

**Q.** What about the GI50 [37] of the same compound?
**A.** Its GI50 is > 10 µM (inactive).

**Q.** And the GI50 [39]?
**A.** Its GI50 is > 10 µM (inactive).

**Q.** And the GI50 [40]?
**A.** The GI50 was > 10 µM (inactive).

**Q.** And the GI50 [41]?
**A.** Its GI50 is > 10 µM (inactive).

**Q.** And the GI50 [42]?
**A.** The GI50 was > 10 µM (inactive).

**Q.** And the GI50 [43]?
**A.** The GI50 was > 10 µM (inactive).

**Q.** What about the GI50 [44] of the same compound?
**A.** The GI50 was > 10 µM (inactive).

**Q.** What about the GI50 [45] of the same compound?
**A.** Its GI50 is > 10 µM (inactive).

**Q.** What about the GI50 [47] of the same compound?
**A.** The GI50 was > 10 µM (inactive).

**Q.** And the GI50 [49]?
**A.** The GI50 was > 10 µM (inactive).

**Q.** What about the GI50 [54] of the same compound?
**A.** The GI50 was > 10 µM (inactive).
